Measured values as given in patent US20250275959A1, “COMPOUNDS AND METHODS OF THEIR USE” (LEXICON PHARMACEUTICALS, INC., priority 2024, published 2025).
Each block holds one compound with its values, some of them ahead of it.

Experiments:
[1] = Murine diet-induced obesity (DIO) model, Compounds B-D study; type: in vivo, C57BL/6J mice; details: DIO mice; for mean adipose weights versus control group: abdominal adipose tissue
Procedure: The effects of four representative compounds of the invention were tested in a mouse model of diet-induced obesity (DIO): • Compound A is (R)—N-(tert-butylsulfonyl)-4-(1-(5-(pyridin-3-yloxy)pyridin-2-yl)ethoxy)-3-(trifluoromethyl)benzamide; • Compound B is (R)-4-(1-(5-(cyclopropylmethoxy)pyridin-2-yl)propoxy)-N-((4-(2-(dimethylamino)ethoxy)phenyl)sulfonyl)-2,3-difluorobenzamide; • Compound C is (R)—N-((4-(2-(dimethylamino)ethoxy)piperidin-1l-yl)sulfonyl)-2,3-difluoro-4-(1-(5-(pyridin-2-yloxy)pyridin-2-yl)propoxy)benzamide; and • Compound D is (R)-2,3-difluoro-N-((4-methylpiperazin-1-yl)sulfonyl)-4-(1-(5-(pyridin-2-yloxy)pyridin-2-yl)propoxy)benzamide.
The mice used in these experiments were C57BL/6J mice fed a high-fat diet (D12492 from Research Diets) ad libitum during the study period. The vehicle and test article formulations were 10% w/v Solutol in water.
In this study, three compounds tested at 30 mg/kg were compared against vehicle control over a month. After their acclimation period, DIO mice were equally divided into groups of ten mice each based on body weight. The animals were pre-dosed for three days prior to formal dosing (once per day treatment every group), as well as weight and food intake were recorded from Day −2 onwards. From Day 1 to Day 27, the animals in the dosing group were administered orally by gavage at 5:00 p.m. every day. All animals were fasted overnight after dosing on Day 28 and Day 29. Then the blood (retro-orbital bleed) of mice from each group was collected at 7:00 a.m. to separate out the serum for measuring total cholesterol levels (TC), triglyceride (TG), aminotransferase alanine (ALT), aspartate aminotransferase (AST) and total bilirubin (TBil) levels on Day 29. On day 30, all animals were performed OGTT test (0 min, 15 min, 30 min, 60 min, 90 min and 120 min) and measured insulin levels (0 min, 15 min, 30 min and 60 min). On day 32, all animals were injected insulin after 4 hours fasting, then performed ITT test (0 min, 15 min, 30 min, 60 min and 90 min). On day 33, Epididymal white adipose tissue (eWAT), jejunum, liver, heart and brain were collected; eWAT, liver and heart weights were recorded. All of the adipose tissue in the abdominal cavity was collected and weighted, and the fatty tissue coefficient (body fat ratio) was calculated and then stored at −80° C. for inspection.
• 1. Body weight and Food Consumption: Pre-dose every day from Day −2 onwards. • 2. Day −2,—1 and Day 0: Handle mice and gavage with vehicle. • 3. Day 1˜27: Dose˜5:00 PM. • 4. Day 28: Dose˜5:00 PM. Fast overnight. • 5. Day 29: Determine total cholesterol levels and triglyceride, ALT, AST, total bilirubin levels˜7:00 AM. Resume feeding. • 6. Day 29: Dose˜5:00 PM. Fast overnight. • 7. Day 30: (No drug administration) Oral glucose tolerance test (OGTT) with glucose levels measured at Pre-dose, 15 min, 30 min, 60 min, 90 min and 120 min after the glucose challenge. And insulin levels will be test at time 0 min, 15 min, 30 min and 60 min after the glucose challenge. • 8. Day 30˜31: Dose˜5:00 PM. • 9. Day 32: (No drug administration) ITT test (two days after the OGTT test): Fast 4 h. After insulin injection, the levels of glucose will be measured at Pre-dose, 15 min, 30 min, 60 min and 90 min. • 10. After the ITT test. Collect serum with a terminal bleed from all 50 mice. • 11. Collect epidydimal WAT (eWAT) pad, jejunum, liver, heart, and brain. • 12. Record eWAT, liver, and heart weights. • 13. Before freezing tissue/serum: • (i) Assess Drug Concentration; serum, liver, eWAT, heart, jujenum, and brain. (25 serum samples; 5 mice/group will progress to biomarker study and remaining 25 serum samples saved for future analysis). • 14. Prepare liver, heart and eWAT tissue for histopathology analysis. • (ii) Liver for all 50 mice; HE staining to assess liver steatosis. • (iii) Heart or all 50 mice; HE and DAPI staining to assess cardiac morphology. […]

hACSL5 = hACSL5 (Homo sapiens (Human), UniProt Q9ULC5); experiment: Human ACSL5 coupled enzyme Amplex Red assay; type: biochemical; details: read-out: hACSL5 IC50
Sequence of hACSL5 (Q9ULC5 33-683): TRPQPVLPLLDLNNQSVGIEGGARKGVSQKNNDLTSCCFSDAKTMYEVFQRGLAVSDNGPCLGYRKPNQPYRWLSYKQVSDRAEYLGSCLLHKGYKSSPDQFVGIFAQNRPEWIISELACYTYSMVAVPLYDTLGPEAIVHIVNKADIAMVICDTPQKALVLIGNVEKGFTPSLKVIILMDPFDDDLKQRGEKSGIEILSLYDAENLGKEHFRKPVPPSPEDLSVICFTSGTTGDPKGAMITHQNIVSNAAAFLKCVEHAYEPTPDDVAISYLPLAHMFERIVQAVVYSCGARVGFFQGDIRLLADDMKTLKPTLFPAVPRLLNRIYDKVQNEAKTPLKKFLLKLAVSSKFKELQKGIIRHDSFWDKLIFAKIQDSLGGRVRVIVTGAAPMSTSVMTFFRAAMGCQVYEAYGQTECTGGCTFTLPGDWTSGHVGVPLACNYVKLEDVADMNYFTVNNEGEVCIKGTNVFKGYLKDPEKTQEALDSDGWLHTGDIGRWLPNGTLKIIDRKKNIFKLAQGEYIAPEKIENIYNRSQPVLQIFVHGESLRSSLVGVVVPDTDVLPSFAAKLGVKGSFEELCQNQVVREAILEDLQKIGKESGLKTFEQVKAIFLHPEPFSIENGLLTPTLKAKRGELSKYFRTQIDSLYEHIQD
Method in brief: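 Amplex Red coupled readout: 1 mM ATP, 25 μM oleate and 30 μM CoA were added to compound-preincubated enzyme (20 nM, residues 33-683, insect-cell expressed, His-tagged) with coupling peroxidase and acyl-CoA oxidase at pH 7.6. Signal was read at 535/590 nm after 10 minutes at 25° C., and Hill fits yielded half-maximal and maximal inhibition.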

IC50 (hACSL5): < 100 nM
SMILES: CC[C@@H](Oc1ccc(C(=O)NS(=O)(=O)c2ccc(OCCN(C)C)cc2)c(F)c1F)c1ccc(OCC2CC2)cn1 [Compound B, (R)-4-(1-(5-(cyclopropylmethoxy)pyridin-2-yl)propoxy)-N-((4-(2-(dimethylamino)ethoxy)phenyl)sulfonyl)-2,3-difluorobenzamide]
mean body weight versus control group ([1]; 30 mg/kg oral daily): significantly lower than that of the control group from Day 15 to the end | overall food consumption versus control group ([1]; 30 mg/kg oral daily): significantly lower than that of the control group | Body Weight (g)/Day ([1]; 30 mg/kg oral daily, Day 1): 42.2 ± 4.7 g | Body Weight (g)/Day ([1]; 30 mg/kg oral daily, Day 2): 42.2 ± 4.5 g | Body Weight (g)/Day ([1]; 30 mg/kg oral daily, Day 3): 42.3 ± 4.7 g | Body Weight (g)/Day ([1]; 30 mg/kg oral daily, Day 4): 43 ± 3.9 g | Body Weight (g)/Day ([1]; 30 mg/kg oral daily, Day 5): 43.1 ± 3.9 g | Body Weight (g)/Day ([1]; 30 mg/kg oral daily, Day 6): 43 ± 4.1 g | Body Weight (g)/Day ([1]; 30 mg/kg oral daily, Day 7): 42.8 ± 4 g | Body Weight (g)/Day ([1]; 30 mg/kg oral daily, Day 8): 43.1 ± 4.3 g | Body Weight (g)/Day ([1]; 30 mg/kg oral daily, Day 9): 42.9 ± 4.5 g | Body Weight (g)/Day ([1]; 30 mg/kg oral daily, Day 10): 43.3 ± 4.5 g | Body Weight (g)/Day ([1]; 30 mg/kg oral daily, Day 11): 43.1 ± 4.6 g | Body Weight (g)/Day ([1]; 30 mg/kg oral daily, Day 12): 42.7 ± 4.6 g | Body Weight (g)/Day ([1]; 30 mg/kg oral daily, Day 13): 42.5 ± 4.6 g | Body Weight (g)/Day ([1]; 30 mg/kg oral daily, Day 14): 42.3 ± 4.6 g | Body Weight (g)/Day ([1]; 30 mg/kg oral daily, Day 15): 42.6 ± 4.5 g | Body Weight (g)/Day ([1]; 30 mg/kg oral daily, Day 16): 42.5 ± 4.5 g | Body Weight (g)/Day ([1]; 30 mg/kg oral daily, Day 17): 41.7 ± 4.6 g | Body Weight (g)/Day ([1]; 30 mg/kg oral daily, Day 18): 42.1 ± 4.8 g | Body Weight (g)/Day ([1]; 30 mg/kg oral daily, Day 19): 42.2 ± 4.7 g | Body Weight (g)/Day ([1]; 30 mg/kg oral daily, Day 20): 42.2 ± 4.5 g | Body Weight (g)/Day ([1]; 30 mg/kg oral daily, Day 21): 42.3 ± 4.7 g | Body Weight (g)/Day ([1]; 30 mg/kg oral daily, Day 22): 42.4 ± 4.7 g | Body Weight (g)/Day ([1]; 30 mg/kg oral daily, Day 23): 42.6 ± 4.7 g | Body Weight (g)/Day ([1]; 30 mg/kg oral daily, Day 24): 42.6 ± 4.4 g | Body Weight (g)/Day ([1]; 30 mg/kg oral daily, Day 25): 42.5 ± 4.8 g | Body Weight (g)/Day ([1]; 30 mg/kg oral daily, Day 26): 42.8 ± 4.7 g | Body Weight (g)/Day ([1]; 30 mg/kg oral daily, Day 27): 43 ± 4.8 g | Body Weight (g)/Day ([1]; 30 mg/kg oral daily, Day 28): 42.9 ± 4.7 g | Body Weight (g)/Day ([1]; 30 mg/kg oral daily, Day 29): 42.3 ± 4.4 g | Body Weight (g)/Day ([1]; 30 mg/kg oral daily, Day 30): 40.4 ± 4.2 g | Body Weight (g)/Day ([1]; 30 mg/kg oral daily, Day 31): 40.9 ± 4.2 g | Body Weight (g)/Day ([1]; 30 mg/kg oral daily, Day 32): 40.3 ± 4.1 g | Body Weight (g)/Day ([1]; 30 mg/kg, Day 0 (pre-dose)): 42.1 ± 4.8 g | eWAT coefficient versus control group ([1]; 30 mg/kg, Day 33): slightly lower than that of the control group | Body Weight (g)/Day ([1]; 30 mg/kg, Day −1 (pre-dose)): 41.7 ± 4.6 g | Body Weight (g)/Day ([1]; 30 mg/kg, Day −2 (pre-dose)): 42.5 ± 4.5 g | mean adipose weights versus control group ([1]; 30 mg/kg): significantly lower than that of the control group | ITT blood glucose versus control group ([1]; Day 32, at 30 minutes and 60 minutes after insulin): significantly lower than that of the control group

IC50 (hACSL5): < 100 nM
SMILES: CC[C@@H](Oc1ccc(C(=O)NS(=O)(=O)N2CCN(C)CC2)c(F)c1F)c1ccc(Oc2ccccn2)cn1 [Compound D, (R)-2,3-difluoro-N-((4-methylpiperazin-1-yl)sulfonyl)-4-(1-(5-(pyridin-2-yloxy)pyridin-2-yl)propoxy)benzamide]
mean body weight versus control group ([1]; 30 mg/kg oral daily): significantly lower than that of the control group from Day 15 to the end | overall food consumption versus control group ([1]; 30 mg/kg oral daily): significantly lower than that of the control group | Body Weight (g)/Day ([1]; 30 mg/kg oral daily, Day 1): 44.9 ± 4.3 g | Body Weight (g)/Day ([1]; 30 mg/kg oral daily, Day 2): 44.3 ± 4 g | Body Weight (g)/Day ([1]; 30 mg/kg oral daily, Day 3): 43.6 ± 3.9 g | Body Weight (g)/Day ([1]; 30 mg/kg oral daily, Day 4): 43.7 ± 3.8 g | Body Weight (g)/Day ([1]; 30 mg/kg oral daily, Day 5): 43.7 ± 3.6 g | Body Weight (g)/Day ([1]; 30 mg/kg oral daily, Day 6): 43.5 ± 3.6 g | Body Weight (g)/Day ([1]; 30 mg/kg oral daily, Day 7): 43.4 ± 3.5 g | Body Weight (g)/Day ([1]; 30 mg/kg oral daily, Day 8): 43.7 ± 3.6 g | Body Weight (g)/Day ([1]; 30 mg/kg oral daily, Day 9): 43.5 ± 3.6 g | Body Weight (g)/Day ([1]; 30 mg/kg oral daily, Day 10): 43.3 ± 3.5 g | Body Weight (g)/Day ([1]; 30 mg/kg oral daily, Day 11): 42.9 ± 3.4 g | Body Weight (g)/Day ([1]; 30 mg/kg oral daily, Day 12): 42.6 ± 3.4 g | Body Weight (g)/Day ([1]; 30 mg/kg oral daily, Day 13): 42.3 ± 3.4 g | Body Weight (g)/Day ([1]; 30 mg/kg oral daily, Day 14): 42.3 ± 3.3 g | Body Weight (g)/Day ([1]; 30 mg/kg oral daily, Day 15): 42.4 ± 3.2 g | Body Weight (g)/Day ([1]; 30 mg/kg oral daily, Day 16): 42.3 ± 3.2 g | Body Weight (g)/Day ([1]; 30 mg/kg oral daily, Day 17): 42.1 ± 3.4 g | Body Weight (g)/Day ([1]; 30 mg/kg oral daily, Day 18): 42.2 ± 3.4 g | Body Weight (g)/Day ([1]; 30 mg/kg oral daily, Day 19): 42.3 ± 3.5 g | Body Weight (g)/Day ([1]; 30 mg/kg oral daily, Day 20): 42.3 ± 3.6 g | Body Weight (g)/Day ([1]; 30 mg/kg oral daily, Day 21): 42.3 ± 3.6 g | Body Weight (g)/Day ([1]; 30 mg/kg oral daily, Day 22): 42.3 ± 3.7 g | Body Weight (g)/Day ([1]; 30 mg/kg oral daily, Day 23): 42.3 ± 3.7 g | Body Weight (g)/Day ([1]; 30 mg/kg oral daily, Day 24): 42.2 ± 3.8 g | Body Weight (g)/Day ([1]; 30 mg/kg oral daily, Day 25): 42.4 ± 3.4 g | Body Weight (g)/Day ([1]; 30 mg/kg oral daily, Day 26): 42.5 ± 3.5 g | Body Weight (g)/Day ([1]; 30 mg/kg oral daily, Day 27): 42.5 ± 3.7 g | Body Weight (g)/Day ([1]; 30 mg/kg oral daily, Day 28): 42.5 ± 3.9 g | Body Weight (g)/Day ([1]; 30 mg/kg oral daily, Day 29): 41.8 ± 3.8 g | Body Weight (g)/Day ([1]; 30 mg/kg oral daily, Day 30): 39.5 ± 3.6 g | Body Weight (g)/Day ([1]; 30 mg/kg oral daily, Day 31): 39.7 ± 3.9 g | Body Weight (g)/Day ([1]; 30 mg/kg oral daily, Day 32): 38.9 ± 3.8 g | Body Weight (g)/Day ([1]; 30 mg/kg, Day 0 (pre-dose)): 44.9 ± 4.3 g | eWAT coefficient versus control group ([1]; 30 mg/kg, Day 33): slightly lower than that of the control group | eWAT weights versus control group ([1]; 30 mg/kg, Day 33): significantly lower than that of the control group | Body Weight (g)/Day ([1]; 30 mg/kg, Day −1 (pre-dose)): 44.8 ± 4.1 g | Body Weight (g)/Day ([1]; 30 mg/kg, Day −2 (pre-dose)): 44.9 ± 4.1 g | mean adipose weights versus control group ([1]; 30 mg/kg): significantly lower than that of the control group | ITT blood glucose versus control group ([1]; Day 32, at 15, 30, 60 and 90 minutes after insulin): significantly lower than that of the control group
